Assay results published in patent US20250074891A1 (Anaxis Pharma Pty Ltd., priority 2021, published 2025).

Key:
RIP1 = RIP1 (Homo sapiens (Human), UniProt Q13546); experiment: KINOMEscan binding assay, RIP1; settings: Table 35
RIP3 = RIP3 (Homo sapiens (Human), UniProt Q9Y572); experiment: KINOMEscan binding assay, RIP3; settings: Table 35
Experimental: (§1) Kinase assays. For most assays, kinase-tagged T7 phage strains were grown in parallel in 24-well blocks in an E. coli host derived from the BL21 strain. E. coli were grown to log-phase and infected with T7 phage from a frozen stock (multiplicity of infection=0.4) and incubated with shaking at 32° C. until lysis (90-150 minutes).
(§2) The Hill Slope was set to −1.

MLKL (full length) = MLKL (full length) (Homo sapiens (Human), UniProt Q8NB16); experiment: KINOMEscan binding assay, MLKL (full length); settings: Table 35
Experimental: as §1, §2

[1] = system: U937 human histiocytic leukemia cell line; experiment: Cellular assay: inhibition of TSQ induced necroptosis (CellTitre-Glo); settings: Homo sapiens, U-937; U937 cells, TSQ cocktail, 48 hours, Table 38; read-out: Inhibition of TSQ-induced necroptosis (IC50 cell-based assay)
Experimental: […] ASSAY: Screening compounds for inhibition of TSQ induced necroptosis, 384 well plate format.
Cell Line ID: U937 human histiocytic leukemia cell line.
Cell Concentration (cells/well): Final cell density is 20,000 cells per well.
Cell growth medium: HT-RPMI medium+7.4% Fetal Bovine Serum (FBS). Cells are cultured in Corning 150 cm^z tissue culture flasks with vented caps at 37° C./5% CO2.
Incubation: Plates were incubated at 37° C./5% CO2 in a humidified incubator for 48 hours following addition of compounds and death stimuli (TSQ cocktail).
Compound concentration: 36 μM starting concentration, 1:3 dilution, 10 point
DMSO final concentration (% v/v): 0.3%.
Compounds in TSQ cocktail (T: TNF; S: Smac mimetic; Q: Q-VD-OPh) and their final concentrations: • hTNF-Fc (100 ng/ml)—produced by standard procedures as shown in Bossen et al., J Biol Chem, 2006, 281(20), 13964-13971. • Compound A (500 nM)—Smac mimetic, Tetralogic and SYNthesis med chem • Q-VD-OPh (10 μM)—MP Biomedicals
The cellular assay was carried out according to the following steps: • 1. Each well was prepared by sequential addition of: • a. DMSO (control; columns 1-2 and 23-24) or compound in DMSO—addition was performed using acoustic transfer of nl volumes of stock compound to give final test concentrations of 36, 12, 4, 1.3, 0.44, 0.148, 0.049, 0.016, 0.005 and 0.002 μM. All wells were backfilled with DMSO to a final total volume in the well of 100 nl. • b. Following compound/DMSO addition in step (a), 40 μL of cell suspension (5×10^5 cells/mL) was added to provide a final cell concentration of 20,000 cells per well, and • c. Following cell addition in step (b), 10 μL of 5×TSQ cocktail (except to positive controls; […]) was added to each well. • 2. After 48 hours, plate was removed from the 37° C. incubator and equilibrated to room temperature for 45 minutes. • 3. 15 μL of room temperature CellTitre-Glo2™ (Promega™) was added to each well. • 4. Shook plates for 2 minutes (˜600 rpm) and incubated at room temperature for 15 minutes to allow signal to stabilise. • 5. Read luminescence readout on a plate reader.
Percent viability was calculated for each compound according to equation (2):
[formula] • wherein • RawData is the readout of any cell containing a compound of the invention • TA is the total activity provided by the luminescence readout from DMSO only wells (columns 2 and 24)=100% viability • NSA is the non-specific activity provided by DMSO+TSQ wells (columns 1 and 23)=0% viability
Curve fitting: 10-point titration curves are fitted with the 4-parameter logistic nonlinear regression model and the IC50 reported is the inflection point of the curve.
Analysis: Data was loaded into Dotmatics™ and visualised using the Tibco® Spotfire™ software. 10 points titration curves were fitted with the 4-parameter logistic nonlinear regression model and the IC50 reported reflect the inflection point of the curve for curve fitting.
Assay involving the TSQ cocktail (T: TNF; S: Smac mimetic; Q: Q-VD-OPh): TSQ treatment ensures that cells specifically undergo necroptotic cell death. TNF activates the TNF receptor, Smac mimetic directs the signal away from proinflammatory signaling and toward the RIP1/RIP3-mediated cell death pathways, and Q-VD-OPh ensures that the apoptotic response is blocked leaving only the programmed necrosis response. The compounds' activity (solution in DMSO) tested in this TSQ-induced assay was evaluated by determining the number of viable cells in culture by measuring the amount of ATP present as measured by CelltiterGlo.

U937 cells = experiment: Counter screen: cell viability without TSQ cocktail (off-target effect); parameters: species or system human; settings: Homo sapiens, U-937, Table 38, read-out: Off-target effect (IC50 cell-based assay)
Experimental: Counter screen: In parallel, all compounds were tested for their ability to affect cell viability. The same U937 cells were treated with compound in DMSO without the TSQ cocktail. This counter screen enabled evaluation of off-target effects. In this case, cell viability was measured by CelltiterGlo.

Chain of RIP1 (Q13546 whole entry): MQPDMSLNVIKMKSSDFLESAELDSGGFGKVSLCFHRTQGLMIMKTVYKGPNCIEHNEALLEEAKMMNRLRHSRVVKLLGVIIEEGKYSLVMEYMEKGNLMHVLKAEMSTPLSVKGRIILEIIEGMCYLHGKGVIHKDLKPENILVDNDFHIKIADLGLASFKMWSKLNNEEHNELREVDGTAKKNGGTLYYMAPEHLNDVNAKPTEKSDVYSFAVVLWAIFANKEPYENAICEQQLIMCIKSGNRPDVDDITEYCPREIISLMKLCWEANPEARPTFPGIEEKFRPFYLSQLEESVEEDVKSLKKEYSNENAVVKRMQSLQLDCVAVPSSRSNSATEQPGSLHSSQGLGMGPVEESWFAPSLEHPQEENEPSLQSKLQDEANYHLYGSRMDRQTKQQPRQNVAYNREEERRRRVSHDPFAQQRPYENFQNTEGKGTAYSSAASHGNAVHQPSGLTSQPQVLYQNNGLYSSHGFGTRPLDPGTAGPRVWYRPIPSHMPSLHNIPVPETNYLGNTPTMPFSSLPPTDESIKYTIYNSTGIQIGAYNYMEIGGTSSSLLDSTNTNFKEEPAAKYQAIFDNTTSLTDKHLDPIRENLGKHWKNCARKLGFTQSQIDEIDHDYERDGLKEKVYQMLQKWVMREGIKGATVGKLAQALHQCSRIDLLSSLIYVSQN
Chain of RIP3 (Q9Y572 whole entry): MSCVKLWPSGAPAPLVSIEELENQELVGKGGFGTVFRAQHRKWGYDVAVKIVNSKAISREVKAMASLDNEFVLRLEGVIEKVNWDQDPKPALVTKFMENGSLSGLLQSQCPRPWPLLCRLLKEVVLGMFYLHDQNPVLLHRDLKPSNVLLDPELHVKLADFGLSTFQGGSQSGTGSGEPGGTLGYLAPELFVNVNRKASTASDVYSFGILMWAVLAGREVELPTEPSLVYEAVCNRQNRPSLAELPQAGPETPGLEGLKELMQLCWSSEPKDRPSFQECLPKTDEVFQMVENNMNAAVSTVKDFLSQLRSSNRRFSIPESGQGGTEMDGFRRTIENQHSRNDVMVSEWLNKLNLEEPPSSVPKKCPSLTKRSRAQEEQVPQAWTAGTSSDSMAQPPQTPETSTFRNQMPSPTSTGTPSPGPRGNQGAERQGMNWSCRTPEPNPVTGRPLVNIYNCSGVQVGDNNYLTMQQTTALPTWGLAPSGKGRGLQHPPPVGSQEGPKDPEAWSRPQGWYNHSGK
Chain of MLKL (full length) (Q8NB16 whole entry): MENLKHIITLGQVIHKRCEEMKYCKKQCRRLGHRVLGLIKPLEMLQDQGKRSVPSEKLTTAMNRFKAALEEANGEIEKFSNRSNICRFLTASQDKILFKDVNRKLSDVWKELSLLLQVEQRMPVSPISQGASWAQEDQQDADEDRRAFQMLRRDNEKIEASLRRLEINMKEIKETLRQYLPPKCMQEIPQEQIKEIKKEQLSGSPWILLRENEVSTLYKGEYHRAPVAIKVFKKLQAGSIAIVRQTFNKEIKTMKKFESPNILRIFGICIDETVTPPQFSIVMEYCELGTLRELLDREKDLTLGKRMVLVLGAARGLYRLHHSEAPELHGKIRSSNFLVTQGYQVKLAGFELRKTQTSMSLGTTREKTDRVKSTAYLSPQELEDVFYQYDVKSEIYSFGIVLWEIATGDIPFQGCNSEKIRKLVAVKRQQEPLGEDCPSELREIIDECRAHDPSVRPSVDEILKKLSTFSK

SMILES	Kd (RIP1) [µM]	Kd (RIP3) [µM]	Kd (MLKL (full length)) [µM]	IC50 [1] [µM]	IC50 (U937 cells) [µM]
Cc1nccc(Nc2[nH]nc(-c3ccc(NS(=O)(=O)C(F)F)c(O[C@@H](C)c4ccc(F)cc4)c3)c2C(N)=O)n1 [Compound 309, (S)-3-(4-((difluoromethyl)sulfonamido)-3-(1-(4-fluorophenyl)ethoxy)phenyl)-5-((2-methylpyrimidin-4-yl)amino)-1H-pyrazole-4-carboxamide]	> 30	> 30	< 0.01		
C[C@H](Oc1cc(-c2n[nH]c(Nc3cnc(C(C)(C)C)cn3)c2C(N)=O)ccc1NS(=O)(=O)C(F)F)c1ccc(F)cc1 [Compound 312, (S)-5-((5-(tert-butyl)pyrazin-2-yl)amino)-3-(4-((difluoromethyl)sulfonamido)-3-(1-(4-fluorophenyl)ethoxy)phenyl)-1H-pyrazole-4-carboxamide]	> 30	> 30	< 0.01		
NC(=O)c1c(-c2ccc(NS(=O)(=O)C(F)F)c(OCc3ncco3)c2)n[nH]c1Nc1cnccn1 [Compound 313, 3-(4-((difluoromethyl)sulfonamido)-3-(oxazol-2-ylmethoxy)phenyl)-5-(pyrazin-2-ylamino)-1H-pyrazole-4-carboxamide]	> 30	> 30	< 0.01		
C[C@H](Oc1cc(-c2n[nH]c(Nc3cc(C(F)F)on3)c2C(N)=O)ccc1NS(=O)(=O)C(F)F)c1ccc(F)cc1 [Compound 314, (S)-5-((5-(difluoromethyl)isoxazol-3-yl)amino)-3-(4-((difluoromethyl)sulfonamido)-3-(1-(4-fluorophenyl)ethoxy)phenyl)-1H-pyrazole-4-carboxamide]	> 30	> 30	< 0.01		
CCS(=O)(=O)Nc1ccc(-c2n[nH]c(Nc3ccc(C(=O)O)cn3)c2C(N)=O)cc1O[C@@H](C)c1ccc(F)cc1 [Compound 315, (S)-6-((4-carbamoyl-3-(4-(ethylsulfonamido)-3-(1-(4-fluorophenyl)ethoxy)phenyl)-1H-pyrazol-5-yl)amino)nicotinic acid]	> 30	> 30	< 0.01		
C[C@H](Oc1cc(-c2n[nH]c(Nc3cnc(C4CC4)cn3)c2C(N)=O)ccc1NS(=O)(=O)C(F)F)c1ccc(F)cc1 [Compound 316, (S)-5-((5-cyclopropylpyrazin-2-yl)amino)-3-(4-((difluoromethyl)sulfonamido)-3-(1-(4-fluorophenyl)ethoxy)phenyl)-1H-pyrazole-4-carboxamide]	> 30	> 30	< 0.01		
CCS(=O)(=O)Nc1ccc(-c2n[nH]c(Nc3cc(C)on3)c2C(N)=O)cc1O[C@@H](C)c1ccc(F)cc1 [Compound 317, (S)-3-(4-(ethylsulfonamido)-3-(1-(4-fluorophenyl)ethoxy)phenyl)-5-((5-methylisoxazol-3-yl)amino)-1H-pyrazole-4-carboxamide]	> 30	> 30	< 0.01		
C[C@H](Oc1cc(-c2n[nH]c(Nc3cc4n(n3)CCCN(C)C4)c2C(N)=O)ccc1NS(=O)(=O)C(F)F)c1ccc(F)cc1 [Compound 318, (S)-3-(4-((difluoromethyl)sulfonamido)-3-(1-(4-fluorophenyl)ethoxy)phenyl)-5-((5-methyl-5,6,7,8-tetrahydro-4H-pyrazolo[1,5-a][1,4]diazepin-2-yl)amino)-1H-pyrazole-4-carboxamide]	> 30	> 30	< 0.01		
COCC(Oc1cc(-c2n[nH]c(Nc3cnccn3)c2C(N)=O)ccc1NS(=O)(=O)C(F)F)c1ccc(F)cc1 (centres unmarked) [Compound 319, 3-(4-((difluoromethyl)sulfonamido)-3-(1-(4-fluorophenyl)-2-methoxyethoxy)phenyl)-5-(pyrazin-2-ylamino)-1H-pyrazole-4-carboxamide]	> 30	> 30	< 0.01		
Cc1cc(Nc2c(C(N)=O)c(-c3ccc(NS(=O)(=O)C(F)F)c(O[C@@H](C)c4ccc(F)cc4)c3)nn2C)no1 [Compound 320, (S)-3-(4-((difluoromethyl)sulfonamido)-3-(1-(4-fluorophenyl)ethoxy)phenyl)-1-methyl-5-((5-methylisoxazol-3-yl)amino)-1H-pyrazole-4-carboxamide]	> 30	> 30	< 0.01		
CCS(=O)(=O)Nc1ccc(-c2n[nH]c(Nc3ccnc(OCCOCCOCCOCCNC(=O)COc4cccc5c4C(=O)N(C4CCC(=O)NC4=O)C5=O)c3)c2C(N)=O)cc1 (centres unmarked) [Compound 1002, 5-({2-[2-(2-{2-[2-(2-{[2-(2,6-dioxopiperidin-3-yl)-1,3-dioxo-2,3-dihydro-1H-isoindol-4-yl]oxy}acetamido)ethoxy]ethoxy}ethoxy)ethoxy]pyridin-4-yl}amino)-3-(4-ethanesulfonamidophenyl)-1H-pyrazole-4-carboxamide]				> 10	> 10
CCS(=O)(=O)Nc1ccc(-c2n[nH]c(Nc3ccnc(OCCOCCNC(=O)COc4cccc5c4C(=O)N(C4CCC(=O)NC4=O)C5=O)c3)c2C(N)=O)cc1 (centres unmarked) [Compound 1003, 5-((2-(2-(2-(2-((2-(2,6-dioxopiperidin-3-yl)-1,3-dioxoisoindolin-4-yl)oxy)acetamido)ethoxy)ethoxy)pyridin-4-yl)amino)-3-(4-(ethylsulfonamido)phenyl)-1H-pyrazole-4-carboxamide]				> 10	> 10
CCS(=O)(=O)Nc1ccc(-c2n[nH]c(Nc3ccnc(OCCOCCOCCNC(=O)COc4cccc5c4C(=O)N(C4CCC(=O)NC4=O)C5=O)c3)c2C(N)=O)cc1 (centres unmarked) [Compound 1004, 5-((2-(2-(2-(2-(2-((2-(2,6-dioxopiperidin-3-yl)-1,3-dioxoisoindolin-4-yl)oxy)acetamido)ethoxy)ethoxy)ethoxy)pyridin-4-yl)amino)-3-(4-(ethylsulfonamido)phenyl)-1H-pyrazole-4-carboxamide]				> 10	> 10
Cc1ncsc1-c1ccc(CNC(=O)[C@@H]2C[C@@H](O)CN2C(=O)[C@@H](NC(=O)c2cccc(COc3ccc(Nc4[nH]nc(-c5ccc(NS(=O)(=O)C(F)F)c(O[C@@H](C)c6ccc(F)cc6)c5)c4C(N)=O)nc3)c2)C(C)(C)C)cc1 [Compound 1031, 3-(4-(difluoromethylsulfonamido)-3-((S)-1-(4-fluorophenyl)ethoxy)phenyl)-5-((5-((3-(((S)-1-((2S,4R)-4-hydroxy-2-((4-(4-methylthiazol-5-yl)benzyl)carbamoyl)pyrrolidin-1-yl)-3,3-dimethyl-1-oxobutan-2-yl)carbamoyl)benzyl)oxy)pyridin-2-yl)amino)-1H-pyrazole-4-carboxamide]				< 1	1 to 10
CCS(=O)(=O)Nc1ccc(-c2n[nH]c(Nc3ccn(C)n3)c2C(N)=O)cc1 [compound 91, 3-(4-(ethyl-sulfonamido)phenyl)-5-((1-methyl-1H-pyrazol-3-yl)amino)-1H-pyrazole-4-carboxamide]	> 30	> 30	< 0.01		
